pEC50, pIC50, pKi: −log10 of the molar value. Like-named read-outs stand apart in the source and are kept apart here.

Experiment [1] concerns the target T1, hPR (Homo sapiens, UniProt P06401).
T1 sequence (P06401 1-933): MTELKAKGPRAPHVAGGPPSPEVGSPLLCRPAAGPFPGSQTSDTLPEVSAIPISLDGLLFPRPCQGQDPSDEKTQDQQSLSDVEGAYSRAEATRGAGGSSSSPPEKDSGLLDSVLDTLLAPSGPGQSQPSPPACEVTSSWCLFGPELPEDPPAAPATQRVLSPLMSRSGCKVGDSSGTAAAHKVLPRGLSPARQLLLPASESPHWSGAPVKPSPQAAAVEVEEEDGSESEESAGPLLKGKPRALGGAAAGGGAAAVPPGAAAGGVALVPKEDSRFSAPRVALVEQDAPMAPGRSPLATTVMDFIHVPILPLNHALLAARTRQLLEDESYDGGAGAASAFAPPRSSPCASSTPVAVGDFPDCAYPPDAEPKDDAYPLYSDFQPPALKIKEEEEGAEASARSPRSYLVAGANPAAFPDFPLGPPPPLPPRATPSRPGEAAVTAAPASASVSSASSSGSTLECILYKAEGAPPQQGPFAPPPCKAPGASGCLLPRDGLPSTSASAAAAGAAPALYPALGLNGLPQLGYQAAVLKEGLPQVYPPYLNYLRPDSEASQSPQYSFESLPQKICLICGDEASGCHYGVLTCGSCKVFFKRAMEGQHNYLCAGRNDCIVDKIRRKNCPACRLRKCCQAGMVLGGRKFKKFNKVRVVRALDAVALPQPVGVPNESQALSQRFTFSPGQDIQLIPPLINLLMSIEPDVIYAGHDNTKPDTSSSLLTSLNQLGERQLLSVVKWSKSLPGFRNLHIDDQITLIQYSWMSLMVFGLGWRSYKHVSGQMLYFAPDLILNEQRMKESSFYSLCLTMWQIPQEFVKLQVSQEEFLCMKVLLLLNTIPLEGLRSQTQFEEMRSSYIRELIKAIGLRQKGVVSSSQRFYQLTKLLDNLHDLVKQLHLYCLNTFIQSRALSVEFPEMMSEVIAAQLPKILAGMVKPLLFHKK
The experiment in a line: Cotransfection assay, PR agonist activity in CV-1 cells. The note with it: for pEC50: agonist potency EC50, read-out: PR Agonist CV-1 Cells Potency. The class given is cell-based.
Experimental: (§1) All the cotransfection experiments were carried out in 96-well plates by automation (Beckman Biomomek automated workstation).

The target of experiment [2] is T1, hPR. The experiment in a line: Cotransfection assay, PR antagonist activity in CV-1 cells. The class given is cell-based. To be noted: for pIC50: antagonist potency IC50; for PR Antagonist CV-1 Cells Efficacy (%): percent maximal response relative to reference antagonist.
Experimental: as §1
Experiment [3] has as its target T2, hPR-A (Homo sapiens, UniProt P06401).
T2 sequence (P06401 1-769 isoform P06401-2): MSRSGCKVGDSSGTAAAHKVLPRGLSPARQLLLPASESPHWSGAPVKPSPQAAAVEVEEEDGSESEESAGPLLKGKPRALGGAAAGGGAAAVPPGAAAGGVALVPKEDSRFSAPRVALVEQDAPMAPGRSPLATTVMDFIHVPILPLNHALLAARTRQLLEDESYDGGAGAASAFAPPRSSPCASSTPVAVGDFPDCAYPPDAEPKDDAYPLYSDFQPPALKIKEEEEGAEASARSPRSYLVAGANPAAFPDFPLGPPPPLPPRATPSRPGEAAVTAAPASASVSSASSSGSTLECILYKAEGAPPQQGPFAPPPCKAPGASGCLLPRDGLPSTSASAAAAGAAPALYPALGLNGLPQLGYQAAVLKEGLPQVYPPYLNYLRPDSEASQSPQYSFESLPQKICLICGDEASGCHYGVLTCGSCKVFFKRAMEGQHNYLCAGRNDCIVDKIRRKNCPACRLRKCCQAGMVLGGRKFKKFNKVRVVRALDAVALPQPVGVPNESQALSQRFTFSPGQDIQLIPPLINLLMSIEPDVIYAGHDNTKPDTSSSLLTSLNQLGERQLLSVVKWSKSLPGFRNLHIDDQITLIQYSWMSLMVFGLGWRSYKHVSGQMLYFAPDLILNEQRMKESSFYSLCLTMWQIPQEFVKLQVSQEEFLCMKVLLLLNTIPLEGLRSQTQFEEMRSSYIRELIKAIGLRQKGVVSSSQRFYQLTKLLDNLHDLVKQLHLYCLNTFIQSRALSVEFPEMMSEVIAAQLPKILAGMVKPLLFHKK
The experiment is described as follows: Receptor competitive binding assay. To be noted: hPR-A; read-out: PR Binding Ki.

Setting [4] is: CV-1 cells, MTV-LUC reporter, percent maximal response relative to progesterone.

One may read the pIC50 as the negative decadic logarithm of the IC50, by convention in mol/L. In general, pKi refers to the negative decadic logarithm of the Ki, by convention in mol/L. Consider `CC1=CC(C2Oc3ccc(F)cc3-c3ccc4c(c32)C(C)=CC(C)(C)N4)CCC1` (racemic) [Compound 25, (±)-(5l,1′u)-5-(3-methyl-2-cyclohexenyl)-9-fluoro-1,2-dihydro-2,2,4-trimethyl-5H-chromeno[3,4-f]quinoline], for which the “PR Agonist CV-1 Cells Efficacy (%)” value in experiment [1] (setting [4]) was 86%. Moreover, in experiment [1] (CV-1 cells), the pEC50 is 8.01. In experiment [2], the pIC50 was under 5.00; the “PR Antagonist CV-1 Cells Efficacy (%)” value is “na (na = not active (i.e. efficacy of <20 and potency of >10,000))”. Besides, in experiment [3], the negative logarithm of the Ki (pKi) is 8.20.
For the molecule `CC1=C[C@@H]([C@H]2Oc3c(F)cc(F)cc3-c3ccc4c(c32)C(C)=CC(C)(C)N4)CCC1` (racemic) [Compound 35, (±)-(5l,1′u)-5-(3-methyl-2-cyclohexenyl)-7,9-difluoro-1,2-dihydro-2,2,4-trimethyl-5H-chromeno[3,4-f]quinoline], the “PR Agonist CV-1 Cells Efficacy (%)” value in experiment [1] (setting [4]) turned out to be 100%. For the same molecule, in experiment [2], the “PR Antagonist CV-1 Cells Efficacy (%)” value is “na (na = not active (i.e. efficacy of <20 and potency of >10,000))”.
On to `CC1=C[C@H]([C@H]2Oc3ccc(F)cc3-c3ccc4c(c32)C=CC(C)(C)N4)CCC1` (racemic) [Compound 41, (±)-(5l,1′l)-5-(3-methyl-2-cyclohexenyl)-9-fluoro-1,2-dihydro-2,2-dimethyl-5H-chromeno[3,4-f]quinoline], for which, in experiment [1] (setting [4]), the “PR Agonist CV-1 Cells Efficacy (%)” value turned out to be 122%. Moreover, the pEC50 in experiment [1] (CV-1 cells) was 8.00. In experiment [2], the negative-log IC50 (pIC50) is under 5.00; the “PR Antagonist CV-1 Cells Efficacy (%)” value was “na (na = not active (i.e. efficacy of <20 and potency of >10,000))”. For the same molecule, in experiment [3], the negative logarithm of the Ki (pKi) was 7.96.
Turning to `CC1=C[C@@H]([C@H]2Oc3ccc(F)cc3-c3ccc4c(c32)C=CC(C)(C)N4)CCC1` (racemic) [Compound 42, (±)-(5l,1′u)-5-(3-methyl-2-cyclohexenyl)-9-fluoro-1,2-dihydro-2,2-dimethyl-5H-chromeno[3,4-f]quinoline], the “PR Agonist CV-1 Cells Efficacy (%)” value in experiment [1] (setting [4]) came out at 27%. In experiment [1] (CV-1 cells), the pEC50 was 7.42. In addition, in experiment [2], the pIC50 was under 5.00; the “PR Antagonist CV-1 Cells Efficacy (%)” value is “na (na = not active (i.e. efficacy of <20 and potency of >10,000))”. In experiment [3], the negative-log Ki (pKi) is 6.84.
With `CC1=CC(C2Oc3ccc(F)cc3-c3ccc4c(c32)C(C)=CC(C)(C)N4)CC1` (racemic) [Compound 44, (±)-(5l,1′l)-5-(3-methyl-2-cyclopentenyl)-9-fluoro-1,2-dihydro-2,2,4-trimethyl-5H-chromeno[3,4-f]quinoline], the “PR Agonist CV-1 Cells Efficacy (%)” value in experiment [1] (setting [4]) came to 123%. The pEC50 in experiment [1] (CV-1 cells) is 8.17. In addition, in experiment [2], the pIC50 was under 5.00; the “PR Antagonist CV-1 Cells Efficacy (%)” value is “na (na = not active (i.e. efficacy of <20 and potency of >10,000))”. The negative-log Ki (pKi) in experiment [3] is 8.11.
For `CC1=CC(C2Oc3ccc(F)cc3-c3ccc4c(c32)C(C)=CC(C)(C)N4)CC1` (racemic) [Compound 45, (±)-(5l,1′u)-5-(3-methyl-2-cyclopentenyl)-9-fluoro-1,2-dihydro-2,2,4-trimethyl-5H-chromeno[3,4-f]quinoline], in experiment [1] (setting [4]), the “PR Agonist CV-1 Cells Efficacy (%)” value was determined as 94%. In addition, the pEC50 in experiment [1] (CV-1 cells) is 8.04. Moreover, in experiment [2], the pIC50 was under 5.00; the “PR Antagonist CV-1 Cells Efficacy (%)” value was “na (na = not active (i.e. efficacy of <20 and potency of >10,000))”. For the same molecule, the pKi in experiment [3] was 7.77.
Regarding `COc1cc2c(cc1F)-c1ccc3c(c1C(C1C=C(C)CCC1)O2)C(C)=CC(C)(C)N3` (racemic) [Compound 64, (±)-(5l,1′l)-5-(3-methyl-2-cyclohexenyl)-9-fluoro-1,2-dihydro-8-methoxy-2,2,4-trimethyl-5H-chromeno[3,4-f]quinoline], the “PR Agonist CV-1 Cells Efficacy (%)” value in experiment [1] (setting [4]) is “na (na = not active (i.e. efficacy of <20 and potency of >10,000))”. Besides, in experiment [1] (CV-1 cells), the pEC50 was under 5.00. In experiment [2], the pIC50 is 5.72 and the “PR Antagonist CV-1 Cells Efficacy (%)” value is on record as 80%. The negative logarithm of the Ki (pKi) in experiment [3] was 6.31.
As for `COc1cc2c(cc1F)-c1ccc3c(c1C(C1C=C(C)CCC1)O2)C(C)=CC(C)(C)N3` (racemic) [Compound 65, (±)-(5l,1′u)-5-(3-methyl-2-cyclohexenyl)-9-fluoro-1,2-dihydro-8-methoxy-2,2,4-trimethyl-5H-chromeno[3,4-f]quinoline], the “PR Agonist CV-1 Cells Efficacy (%)” value in experiment [1] (setting [4]) was “na (na = not active (i.e. efficacy of <20 and potency of >10,000))”. Further, the pEC50 in experiment [1] (CV-1 cells) is under 5.00. For the same molecule, in experiment [2], the negative logarithm of the IC50 (pIC50) was 6.19 and the “PR Antagonist CV-1 Cells Efficacy (%)” value is reported as 59%. Also, the negative logarithm of the Ki (pKi) in experiment [3] is 6.48.
`CC1=CC(C2Oc3ccc(F)cc3-c3ccc4c(c32)C(C)=CC(C)(C)N4)CCC1` (single isomer, unassigned; (+)) [Compound 27, (+)-(5l,1′l)-5-(3-methyl-2-cyclohexenyl)-9-fluoro-1,2-dihydro-2,2,4-trimethyl-5H-chromeno[3,4-f]quinoline]: the “PR Agonist CV-1 Cells Efficacy (%)” value in experiment [1] (setting [4]) worked out at 68%. Besides, the pEC50 in experiment [1] (CV-1 cells) is 7.37. In addition, in experiment [2], the negative-log IC50 (pIC50) was under 5.00; the “PR Antagonist CV-1 Cells Efficacy (%)” value is “na (na = not active (i.e. efficacy of <20 and potency of >10,000))”. Further, the pKi in experiment [3] is 6.62.
With `CC1=CC(C2Oc3c(F)cc(F)cc3-c3ccc4c(c32)C(C)=CC(C)(C)N4)CCC1` (single isomer, unassigned; (+)) [Compound 37, (+)-(5l,1′l)-5-(3-methyl-2-cyclohexenyl)-7,9-difluoro-1,2-dihydro-2,2,4-trimethyl-5H-chromeno[3,4-f]quinoline], in experiment [1] (setting [4]), the “PR Agonist CV-1 Cells Efficacy (%)” value is “na (na = not active (i.e. efficacy of <20 and potency of >10,000))”. For the same molecule, in experiment [2], the “PR Antagonist CV-1 Cells Efficacy (%)” value turned out to be 50%.
As for `CC1=CC(C2Oc3ccc(F)cc3-c3ccc4c(c32)C(C)=CC(C)(C)N4)CCC1` (single isomer, unassigned; (-)) [Compound 28, (−)-(5l,1′l)-5-(3-methyl-2-cyclohexenyl)-9-fluoro-1,2-dihydro-2,2,4-trimethyl-5H-chromeno[3,4-f]quinoline], the “PR Agonist CV-1 Cells Efficacy (%)” value in experiment [1] (setting [4]) was determined as 171%. Moreover, the pEC50 in experiment [1] (CV-1 cells) is 9.05. In experiment [2], the pIC50 is under 5.00; the “PR Antagonist CV-1 Cells Efficacy (%)” value was “na (na = not active (i.e. efficacy of <20 and potency of >10,000))”. Moreover, the pKi in experiment [3] is 8.70.
As for `CC(=O)[C@H]1CC[C@H]2[C@@H]3CCC4=CC(=O)CC[C@]4(C)[C@H]3CC[C@]12C` [Prog, progesterone, reference compound], in experiment [1] (setting [4]), the “PR Agonist CV-1 Cells Efficacy (%)” value is given as 100%.
In the case of `CC#C[C@]1(O)CC[C@H]2[C@@H]3CCC4=CC(=O)CCC4=C3[C@@H](c3ccc(N(C)C)cc3)C[C@@]21C` [RU486, mifepristone, reference compound], the “PR Agonist CV-1 Cells Efficacy (%)” value in experiment [1] was “na (key: na = not active (i.e. efficacy of <20 and potency of >10,000))”.
As to `CN(C)c1ccc([C@H]2C[C@]3(C)[C@@H](CC[C@]3(O)CCCO)[C@@H]3CCC4=CC(=O)CCC4=C32)cc1` [ZK299, reference compound], the “PR Antagonist CV-1 Cells Efficacy (%)” value in experiment [2] worked out at 99%.

The values above are taken from patent publication US7071205B2 (Ligand Pharmaceuticals Incorporated, priority 2002, dated 2006).
